Legend:
[1] = test system: egg of the two-spotted mite; assay: Mite Ovicide Test; assay type: in vivo, Tetranychus urticae (Koch); set-up: key to Mite Ova rating: 1: no mortality; 3: an approximately 50% mortality; 5: 100% mortality; settings: spray on eggs, 4 days
Text: (§1) The test procedures were as follows:
The plants were allowed to dry thoroughly.
(§2) Compositions were rated on the basis of percent kill with a rating of 1 indicating no mortality; 3 signifying an approximately 50% mortality and 5 indicating 100% mortality at the indicated dosage.

[2] = test system: adults and nymphal stages of the two-spotted mite; assay: Mite Foliage Spray Test; assay type: in vivo, Tetranychus urticae (Koch); set-up: key: 1: no mortality; 3: an approximately 50% mortality; 5: 100% mortality; settings: 4 days
Text: as §1, §2

[3] = test system: Perennial rye grass, crabgrass, red root pigweed, mustard; assay: Preliminary Herbicide Seed Germination Test; settings: each rated 1 (no injury) to 5 (no seedlings emerged)
[4] = rating/maximum 20: 100 ppm only, four species
[5] = rating/maximum 15: 100 ppm only, crabgrass omitted
[6] = rating/maximum 40: 100 and 1000 ppm, four species, 10-12 days

| Compound | Mite Ova rating [1] | Mite Adult rating [2] | Herbicide (total preemergence rating) [3, 4] | Herbicide (total preemergence rating) [3, 5] | Herbicide (total preemergence rating) [3, 6] |
| --- | --- | --- | --- | --- | --- |
| CCCCCCCCCCCCC(=O)OC1=C(c2cc(C)ccc2C)C(=O)c2ccccc21 [2-(2',5'-Dimethylphenyl)-3-(tridecanoyloxy)indone] | 5 (100% mortality) | 1 | 4/20 | – | – |
| CCc1cccc(CC)c1C1=C(OC(=O)C(C)(C)C)c2ccccc2C1=O [2-(2',6'-Diethylphenyl)-3-(pivaloyloxy)indone] | 5 (100% mortality) | 5 (100% mortality) | – | 12/15 | – |
| COc1cc(C)c(C2=C(OC(=O)C(C)(C)C)c3ccccc3C2=O)c(C)c1 [2-(2',6'-Dimethyl-4'-methoxyphenyl)-3-(pivaloyloxy)indone] | 3 (an approximately 50% mortality) | 3 (an approximately 50% mortality) | – | – | 24/40 |
| Cc1cc(C(C)(C)C)cc(C)c1C1=C(OC(=O)C(C)(C)C)c2ccccc2C1=O [2-(2',6'-Dimethyl-4'-t-butylphenyl)-3-(pivaloyloxy)indone] | 1 | 1 | – | – | 9/40 |
| Cc1cccc(C)c1C1=C(OC(=O)C(C)(C)C)c2ccccc2C1=O [2-(2',6'-Dimethylphenyl)-3-(pivaloyloxy)indone] | 5 (100% mortality) | 5 (100% mortality) | – | – | 31/40 |
| CC(C)(C)C(=O)OC1=C(c2ccccc2Br)C(=O)c2ccccc21 [2-(2'-Bromophenyl)-3-(pivaloyloxy)indone] | 5 (100% mortality) | 5 (100% mortality) | – | – | 14/40 |
| Cc1cccc(Cl)c1C1=C(OC(=O)C(C)(C)C)c2ccccc2C1=O [2-(2'-Chloro-6'-methylphenyl)-3-(pivaloyloxy)indone] | 5 (100% mortality) | 5 (100% mortality) | – | – | 33/40 |
| CCCC(C)C(=O)OC1=C(c2ccccc2Cl)C(=O)c2ccccc21 (stereo not drawn) [2-(2'-Chlorophenyl)-3-(2-methylpentanoyloxy)indone] | 5 (100% mortality) | 5 (100% mortality) | 4/20 | – | – |
| CC(C)(C)C(=O)OC1=C(c2ccccc2Cl)C(=O)c2ccccc21 [2-(2'-Chlorophenyl)-3-(pivaloyloxy)indone] | 5 (100% mortality) | 5 (100% mortality) | – | – | 18/40 |
| CCCCCCCCCCCCCCCCCC(=O)OC1=C(c2ccccc2Cl)C(=O)c2ccccc21 [2-(2'-Chlorophenyl)-3-(stearoyloxy)indone] | 5 (100% mortality) | 1 | 4/20 | – | – |
| CCc1cccc(C)c1C1=C(OC(=O)C(C)(C)C)c2ccccc2C1=O [2-(2'-Ethyl-6'-methylphenyl)-3-(pivaloyloxy)indone] | 5 (100% mortality) | 5 (100% mortality) | – | 14/15 | – |
| CCc1ccccc1C1=C(OC(=O)C(C)(C)C)c2ccccc2C1=O [2-(2'-Ethylphenyl)-3-pivaloyloxyindone] | 1 | 1 | 4/20 | – | – |
| COc1ccccc1C1=C(OC(=O)C(C)(C)C)c2ccccc2C1=O [2-(2'-Methoxyphenyl)-3-(pivaloyloxy)indone] | 1 | 1 | – | – | 8/40 |
| CCCCCCCCCCCCCCCC(=O)OC1=C(c2ccccc2C)C(=O)c2ccccc21 [2-(2'-Methylphenyl)-3-(palmitoyloxy)indone] | 5 (100% mortality) | 3 (an approximately 50% mortality) | 4/20 | – | – |
| Cc1ccccc1C1=C(OC(=O)C(C)(C)C)c2ccccc2C1=O [2-(2'-Methylphenyl)-3-(pivaloyloxy)indone] | 5 (100% mortality) | 5 (100% mortality) | – | – | 20/40 |
| CC(C)(C)C(=O)OC1=C(c2ccccc2C(F)(F)F)C(=O)c2ccccc21 [2-(2'-Trifluoromethylphenyl)-3-pivaloyloxy indone] | 1 | 1 | 4/20 | – | – |
| CC(C)(C)C(=O)OC1=C(c2ccc(Cl)cc2)C(=O)c2ccccc21 [2-(4'-Chlorophenyl)-3-(pivaloyloxy)indone] | 1 | 1 | 4/20 | – | – |
| CCCCCCCCCCCCCCCC(=O)OC1=C(c2ccc(C(C)C)cc2)C(=O)c2ccccc21 [2-(4'-isopropylphenyl)-3-(palmitoyloxy)indone] | 1 | 1 | 4/20 | – | – |

| Compound | Mite Ova rating [1] | Mite Adult rating [2] | Herbicide (total preemergence rating) [3, 4] | Herbicide (total preemergence rating) [3, 5] | Herbicide (total preemergence rating) [3, 6] |
| --- | --- | --- | --- | --- | --- |
| CC(C)c1ccc(C2=C(OC(=O)C(C)(C)C)c3ccccc3C2=O)cc1 [2-(4'-isopropylphenyl)-3-(pivaloyloxy)indone] | 1 | 1 | 4/20 | – | – |
| CC(=O)OC1=C(c2ccccc2)C(=O)c2ccccc21 [2-Phenyl-3-(acetoxy)indone] | 1 | 1 | – | – | 8/40 |
| O=C(OC1=C(c2ccccc2)C(=O)c2ccccc21)c1ccccc1 [2-Phenyl-3-(benzoyloxy)indone] | 1 | 1 | 4/20 | – | – |
| CC(C)(C)C(=O)OC1=C(c2ccccc2)C(=O)c2ccccc21 [2-Phenyl-3-(pivaloyloxy)indone] | 1 | 1 | – | – | 8/40 |
| CCCCCCCCCCCCCCCCCC(=O)OC1=C(c2ccccc2)C(=O)c2ccccc21 [2-Phenyl-3-(stearoyloxy)indone] | 1 | 1 | 4/20 | – | – |
| Cc1cc(C)c(C2=C(OC(=O)c3c(Cl)ccc(Cl)c3Cl)c3ccccc3C2=O)c(C)c1 [3-(2,3,6-Trichlorobenzoyloxy)-2-(2',4',6'-trimethylphenyl)indone] | 3 (an approximately 50% mortality) | 1 | – | – | 21/40 |
| O=C1C(c2c(Cl)cccc2Cl)=C(OC(=O)c2c(Cl)ccc(Cl)c2Cl)c2ccccc21 [3-(2,3,6-Trichlorobenzoyloxy)-2-(2',6'-dichlorophenyl)indone] | 5 (100% mortality) | 5 (100% mortality) | – | – | 20/40 |
| Cc1cc(C)c(C(=O)OC2=C(c3c(C)cc(C)cc3C)C(=O)c3ccccc32)c(C)c1 [3-(2,4,6-Trimethylbenzoyloxy)-2-(2',4',6'-trimethylphenyl)indone] | 1 | 1 | – | 10/15 | – |
| Cc1cc(C)c(C(=O)OC2=C(c3c(Cl)cccc3Cl)C(=O)c3ccccc32)c(C)c1 [3-(2,4,6-Trimethylbenzoyloxy)-2-(2',6'-dichlorophenyl)indone] | 1 | 1 | – | 6/15 | – |
| Cc1cc(C)c(C2=C(OC(=O)c3ccc(Cl)cc3Cl)c3ccccc3C2=O)c(C)c1 [3-(2,4-Dichlorobenzoyloxy)-2-(2',4',6'-trimethylphenyl)indone] | 5 (100% mortality) | 5 (100% mortality) | – | – | 32/40 |
| O=C(OC1=C(c2c(Cl)cccc2Cl)C(=O)c2ccccc21)c1ccc(Cl)cc1Cl [3-(2,4-Dichlorobenzoyloxy)-2-(2',6'-dichlorophenyl)indone] | 5 (100% mortality) | 5 (100% mortality) | – | – | 28/40 |
| Cc1ccc(C(=O)OC2=C(c3c(C)cc(C)cc3C)C(=O)c3ccccc32)c(C)c1 [3-(2,4-Dimethylbenzoyloxy)-2-(2',4',6'-trimethylphenyl)indone] | 5 (100% mortality) | 1 | – | 11/15 | – |
| Cc1ccc(C(=O)OC2=C(c3c(Cl)cccc3Cl)C(=O)c3ccccc32)c(C)c1 [3-(2,4-Dimethylbenzoyloxy)-2-(2',6'-dichlorophenyl)indone] | 3 (an approximately 50% mortality) | 1 | 5/20 | – | – |
| Cc1cc(C)c(C2=C(OC(=O)c3c(Cl)cccc3Cl)c3ccccc3C2=O)c(C)c1 [3-(2,6-Dichlorobenzoyloxy)-2-(2',4',6'-trimethylphenyl)indone] | 1 | 1 | – | – | 8/40 |
| O=C1C(c2c(Cl)cccc2Cl)=C(OC(=O)c2c(Cl)cccc2Cl)c2ccccc21 [3-(2,6-Dichlorobenzoyloxy)-2-(2',6'-dichlorophenyl)indone] | 1 | 1 | – | – | 8/40 |
| COc1cccc(OC)c1C(=O)OC1=C(c2c(C)cc(C)cc2C)C(=O)c2ccccc21 [3-(2,6-Dimethoxybenzoyloxy)-2-(2',4',6'-trimethylphenyl)indone] | 1 | 1 | 4/20 | – | – |
| COc1cccc(OC)c1C(=O)OC1=C(c2c(Cl)cccc2Cl)C(=O)c2ccccc21 [3-(2,6-Dimethoxybenzoyloxy)-2-(2',6'-dichlorophenyl)indone] | 1 | 1 | – | 12/15 | – |

Source: US4091006A, “Esters of 3-hydroxyindone compounds” (priority 1975, dated 1978)
